US20230265069A1, “Small Molecule Inhibitors That Block the Budding of Enveloped Viruses” (priority 2020, published 2023)
Entries after “also recorded” stand apart in the source; their conditions may differ. Where two headings read alike, the source gives them in different places.

Columns and labels:
[1] = target: T1, Tsg101-UEV (Tsg101 amino acids 1-145) (Homo sapiens, UniProt Q99816); test: Fluorescence thermal shift (FTS) assay, binding to Tsg101-UEV; details: for Thermal shift (Tm shift) of Tsg101-UEV caused by compound: FTS dose response, result in words; for Tm shift of Tsg101 in the FTS assay on addition of DTT: with reducing agent DTT
T1 sequence (Q99816 1-145): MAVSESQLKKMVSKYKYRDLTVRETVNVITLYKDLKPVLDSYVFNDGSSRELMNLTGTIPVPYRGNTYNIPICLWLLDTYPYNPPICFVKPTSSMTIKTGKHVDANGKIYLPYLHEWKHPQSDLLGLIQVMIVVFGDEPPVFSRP
Method: The fluorescence-based thermal shift assay is based on the observation that a protein unfolds upon heating, exposing the hydrophobic residues within its tertiary structure. The unfolding temperature (Tm) is determined by the protein's primary sequence and solution environment. The FTS assay uses a fluorescent dye sensitive to a hydrophobic environment to probe protein stability and its modulation by small molecule ligands. The dye has a low fluorescence quantum yield when in a polar environment. Once in contact with the hydrophobic core normally buried within a folded protein that has become exposed during the thermal unfolding (melting) process, the quantum yield of the dye increases, thus providing a reporting signal. Furthermore, a protein's stability can be affected by ligand binding, resulting in an increase or decrease in its melting temperature. FTS assay uses the Tm shift upon binding of a ligand to identify hit compounds for drug discovery.
We screened chemical compounds using a fluorescence thermal shift (FTS) assay (27, 28) to identify small molecules that bind directly to a truncated form of Tsg101 (amino acids 1-145) which contains the Ubiquitin E2 variant (UEV) ubiquitin-binding domain (FIG. 1A, 1B, 1C). […] This truncated Tsg101, called Tsg101-UEV, was used because full-length Tsg101 has significant solubility issues in aqueous solution. Tsg101 is an adaptor protein and thus lacks a readily deployable functional assay, making FTS a tractable approach to identify interacting compounds. FTS monitors protein thermal denaturation using SYPRO® Orange, a dye which fluoresces when bound to hydrophobic surfaces, which allows monitoring of the changes in hydrophobic surface exposure during protein denaturation (27). Since ligand binding affects protein thermal stability, it can be detected through modulation of protein thermal denaturation (melting) as a shift in melting temperature (Tm). Tsg101-UEV has a well-defined melting curve suitable for FTS. We used the FTS assay to identify compounds that bind to Tsg101-UEV.
Fluorescence thermal shift (FTS) screening to identify small molecule binding to Tsg101-UEV. FTS using thermal shift elicited by the small molecule binding effect to protein stability. FTS monitors protein thermal denaturation using environment-sensitive dye Sypro® Orange which fluoresces when bound to hydrophobic surfaces, taking advantage of the changes in hydrophobic surface exposure in protein denaturation. Discovery of small molecule binding to target protein utilizes the observation that ligand binding affects protein thermal stability, and therefore can be detected through a shift in the protein's thermal denaturation (melting) temperature (Tm). We have employed FTS to reveal changes in thermodynamic properties of Tsg101 elicited by its interaction with a small molecule. […] A fluorescence dye Sypro® Orange (Invitrogen) was used for assay detection. The dye is excited at 473 nm and has a fluorescence emission at 610 nm. The dye binds to hydrophobic regions of a protein that are normally buried in a native protein structure. […] The Tsg101 fragment was premixed at a concentration of 2 μM with a 5× concentration of Sypro® Orange in HEPES buffer (100 mM HEPES, 150 mM NaCl, pH 7.5). Then 10 μl of the protein-dye mix was added to an assay plate and 10 to 50 nanoliters of compound, equal to 10 to 50 μM, were added with an acoustic transfer robot Echo550 (Labcyte, CA).

HSV-2 [2] = test: HSV-2 release from infected Vero cells, plaque assay; details: for EC50: read-out: EC50 (μM) Inhibition of HSV-2 Budding at 24 h; for Titer of HSV-2 Media, 24 h / Titer of HSV-2 in media + cell lysate, 24 h / Titer of HSV-2 in media, 48 h: Vero cells
HIV-1 [3] = details: 293T cells in culture; cited from earlier work
HIV-1 [4] = details: 293T cells, media, 24 h
Method: Effect of Ilaprazole on release of HIV-1 in vitro. […] To this end, cells were transfected with pR9-HIV-1Ba-L plasmid and release of virus into the media fraction was detected by monitoring the capsid (CA) protein (p24) via enzyme linked immunosorbent assay analysis. The drug was tested at concentrations between 0 and 240 μM and the effect of the drug on release of virus assessed (Table 4, column 2).
HIV-1 transfection of 293 T cells. 293T cells (American Type Culture Collection) were grown in a 24-well Clear Flat Bottom TC-treated Multiwell Cell Culture Plate using Dulbecco's modified Eagle's medium (Cellgro) containing fetal bovine serum (10%), 100 U/ml penicillin, 100 μg/ml streptomycin, and 292 μg/ml 1-glutamine (Cellgro). Cells were grown to 60-70% confluency at 37° C. and 5% CO2 408 prior to addition of drug treatment. Culture media was aspirated and replaced with media containing drug compound 7 hours prior to transfection of the plasmid encoding the HIV-1 genome. Transfection was done using reagent Polyethyleneimine (PEI, Polysciences). […] After 24 h and 48 h, tissue culture media was collected and passed through a 0.45-micron filter. Virus released from cells was quantified by media-associated p24 determined using fluorescently tagged CA targeting antibody (PerkinElmer) and equivalent amounts of p24 as standards.

293T cells = test: 293T cell viability, 96 Aqueous One reagent; type: cell-based
Source text: (§1) Drug potency and cell toxicity. […] Cell toxicity experiments were repeated twice.

HSV-1 [5] = test: Transmission electron microscopy of HSV-1 infected Vero cells, particle counts; details: 18 μM ilaprazole, 24 h, HSV-1, Vero cells
Method: (§2) Transmission electron Microscopy. Vero cells on glass cover slips were infected with HSV-2 at a MOI of 0.1 for two hours. Then 105 μM of tenatoprazole or 18 μM Ilaprazole was added and cells incubated for 24 hours. Tissue samples were fixed in 0.1 M sodium cacodylate buffer pH 7.3 containing 2% paraformaldehyde and 2.5% glutaraldehyde and post-fixed with 2% osmium tetroxide 427 in unbuffered aqueous solution. The samples were rinsed with distilled water, en bloc stained with 3% uranyl acetate, rinsed with distilled water, dehydrated in ascending grades of ethanol, transitioned with propylene oxide, embedded in the resin mixture of Embed 812 kit and cured in a 60° C. oven. Samples were sectioned on a Leica Ultracut UC6 ultramicrotome. 1 μm thick sections were collected and stained with Toluidine Blue O and 70 nm sections were collected on 200 mesh copper grids; thin sections were stained with uranyl acetate and Reynolds lead citrate. Transmission electron microscopy (TEM) was performed on a FEI Tecnai Spirit G2.

HSV-2 [6] = test: Transmission electron microscopy of HSV-2 infected Vero cells, particle counts; details: 18 μM ilaprazole, 24 h, HSV-2, Vero cells
Method: Vero cells grown on glass cover slips were infected with HSV-2 at MOI of 0.1 pfu/cell for 2 h and then treated for 24 h with 105 μM tenatoprazole or vehicle control.
as §2

Vero cells [7] = test: Vero cell viability, 96 AQueous One Solution cell proliferation assay; type: cell-based
Source text: as §1

Vero cells [8] = test: Vero cell toxicity, WST-1 reagent; type: cell-based
Source text: as §1

HSV-1 [9] = test: HSV-1 release from infected Vero cells, plaque assay; details: Vero cells
[10] = HSV-2 infected Vero cells, virus released into media, plaque assay
[11] = Human alphaherpesvirus 2, Vero, 24 h

5-methoxy-2[[(3,5-dimethyl-4-methoxy-pridin-2-yl-N-oxide)methyl]sulfinyl]-1H-benzimidazole [O-omeprazole]
Thermal shift (Tm shift) of Tsg101-UEV caused by compound [1]: did not cause a detectable thermal shift | EC50 (μM) Inhibition of HSV-2 Budding at 24 h (HSV-2 [2]; [10]): inactive

Dexlansoprazole
EC50 (HSV-2 [2]; [10]): 76 µM

COc1ccc2[nH]c([S+]([O-])Cc3ncc(C)c(OC)c3C)nc2c1 (stereo not drawn) [Omeprazole]
EC50 (HSV-2 [2]; [11]): 78 µM

4-desmethoxy-omeprazole
EC50 (HSV-2 [2]; [10]): 52 µM

Esomeprazole
Inhibition of release of infectious HIV-1 from 293T cells (earlier report) (HIV-1 [3]): quantitatively inhibit | EC50 (HSV-2 [2]; [10]): 140 µM

Pantoprazole
Thermal shift (Tm shift) of Tsg101-UEV caused by compound [1]: smallest thermal shift | Tm shift of Tsg101 in the FTS assay on addition of DTT [1]: abolishes the Tm shift | EC50 (μM) Inhibition of HSV-2 Budding at 24 h (HSV-2 [2]; [10]): inactive

Ilaprazole
Thermal shift (Tm shift) of Tsg101-UEV caused by compound [1]: largest thermal shift | Tm shift of Tsg101 in the FTS assay on addition of DTT [1]: blocked by the addition of DTT; also recorded: abolishes the Tm shift | p24 pg/ml HIV (HIV-1 [4]; Ilaprazole 0.5 μM): 4063 pg/mL | p24 pg/ml HIV (HIV-1 [4]; Ilaprazole 1 μM): 3518 pg/mL | p24 pg/ml HIV (HIV-1 [4]; Ilaprazole 2 μM): 1652 pg/mL | p24 pg/ml HIV (HIV-1 [4]; Ilaprazole 5 μM): 274 pg/mL | p24 pg/ml HIV (HIV-1 [4]; Ilaprazole 10 μM): 178 pg/mL | Toxicity to cells at concentrations that inhibited release of HIV-1 (293T cells; 293T cells): did not detect toxicity | 96 ® Cell Viability OD490 nm, 24 h (293T cells; Ilaprazole 1.8 μM): 1.672 | 96 ® Cell Viability OD490 nm, 24 h (293T cells; Ilaprazole 3.6 μM): 1.576 | 96 ® Cell Viability OD490 nm, 24 h (293T cells; Ilaprazole 7.2 μM): 1.684 | 96 ® Cell Viability OD490 nm, 24 h (293T cells; Ilaprazole 10.8 μM): 1.650 | 96 ® Cell Viability OD490 nm, 24 h (293T cells; Ilaprazole 13.5 μM): 1.693 | Average number of virus particles in the nucleus (HSV-1 [5]): 43 particles | Range of virus particles in the nucleus (HSV-1 [5]): 15-166 particles | Virus particles in the cytoplasm (HSV-1 [5]): 0 particles | Average number of virus particles in the nucleus (HSV-2 [6]): 31 particles | Range of virus particles in the nucleus (HSV-2 [6]): 9-56 particles | Virus particles in the cytoplasm (HSV-2 [6]): 0 particles | Cell toxicity at concentrations that block virus release (Vero cells [7]; 24 h, result in words): did not observe cell toxicity | 96 ® Cell Viablility OD490 nm 24 h (Vero cells [7]; Ilaprazole 4.5 μM): 1.764 | 96 ® Cell Viablility OD490 nm 24 h (Vero cells [7]; Ilaprazole 9.0 μM): 1.711 | 96 ® Cell Viablility OD490 nm 24 h (Vero cells [7]; Ilaprazole 13.5 μM): 1.690 | 96 ® Cell Viablility OD490 nm 24 h (Vero cells [7]; Ilaprazole 18.0 μM): 1.737 | 96 ® Cell Viablility OD490 nm 24 h (Vero cells [7]; Ilaprazole 54 μM): 1.658 | 96 ® Cell Viablility OD490 nm 24 h (Vero cells [7]; Ilaprazole 270 μM): 0.466 | Titer of HSV-2 Media, 24 h (HSV-2 [2]; Ilaprazole 4.5 μM): 1.00E+05 | Titer of HSV-2 in media + cell lysate, 24 h (HSV-2 [2]; Ilaprazole 4.5 μM): 3.60E+07 | Titer of HSV-2 in media, 48 h (HSV-2 [2]; Ilaprazole 4.5 μM): 2.50E+05 | Titer of HSV-2 Media, 24 h (HSV-2 [2]; Ilaprazole 9.0 μM): 5.00E+04 | Titer of HSV-2 in media + cell lysate, 24 h (HSV-2 [2]; Ilaprazole 9.0 μM): 4.50E+06 | Titer of HSV-2 in media, 48 h (HSV-2 [2]; Ilaprazole 9.0 μM): 7.50E+04 | Titer of HSV-2 Media, 24 h (HSV-2 [2]; Ilaprazole 13.5 μM): 1.00E+04 | Titer of HSV-2 in media + cell lysate, 24 h (HSV-2 [2]; Ilaprazole 13.5 μM): 4.30E+06 | Titer of HSV-2 in media, 48 h (HSV-2 [2]; Ilaprazole 13.5 μM): 5.50E+04 | Titer of HSV-2 Media, 24 h (HSV-2 [2]; Ilaprazole 18.0 μM): 1.50E+03 | Titer of HSV-2 in media + cell lysate, 24 h (HSV-2 [2]; Ilaprazole 18.0 μM): 2.00E+05 | Titer of HSV-2 in media, 48 h (HSV-2 [2]; Ilaprazole 18.0 μM): 1.50E+03 | Titer of HSV-2 Media, 24 h (HSV-2 [2]; Ilaprazole 22.5 μM): 1.00E+02 | Titer of HSV-2 in media + cell lysate, 24 h (HSV-2 [2]; Ilaprazole 22.5 μM): 1.50E+04 | Titer of HSV-2 in media, 48 h (HSV-2 [2]; Ilaprazole 22.5 μM): 3.00E+02 | EC50 (HSV-2 [2]; [10]): 3 to 9 µM | WST-1 Cell Toxicity OD440-660 nm, 24 h (Vero cells [8]; Ilaprazole 4.5 μM): 1.058 | WST-1 Cell Toxicity OD440-660 nm, 24 h (Vero cells [8]; Ilaprazole 9.0 μM): 1.055 | WST-1 Cell Toxicity OD440-660 nm, 24 h (Vero cells [8]; Ilaprazole 13.5 μM): 0.950 | WST-1 Cell Toxicity OD440-660 nm, 24 h (Vero cells [8]; Ilaprazole 27 μM): 1.055 | WST-1 Cell Toxicity OD440-660 nm, 24 h (Vero cells [8]; Ilaprazole 270 μM): 0.423 | Titer of HSV-1 Media, 24 h (HSV-1 [9]; Ilaprazole 4.5 μM): 2.00E+06 | Titer of HSV-1 Media, 48 h (HSV-1 [9]; Ilaprazole 4.5 μM): 2.40E+06 | Titer of HSV-1 in media + cell lysate, 24 h (HSV-1 [9]; Ilaprazole 4.5 μM): 7.0E+07 | Titer of HSV-1 Media, 24 h (HSV-1 [9]; Ilaprazole 9.0 μM): 7.50E+04 | Titer of HSV-1 Media, 48 h (HSV-1 [9]; Ilaprazole 9.0 μM): 2.50E+05 | Titer of HSV-1 in media + cell lysate, 24 h (HSV-1 [9]; Ilaprazole 9.0 μM): 3.6E+06 | Titer of HSV-1 Media, 24 h (HSV-1 [9]; Ilaprazole 13.5 μM): 3.20E+04 | Titer of HSV-1 Media, 48 h (HSV-1 [9]; Ilaprazole 13.5 μM): 2.00E+02 | Titer of HSV-1 in media + cell lysate, 24 h (HSV-1 [9]; Ilaprazole 13.5 μM): 3.8E+05 | Titer of HSV-1 Media, 24 h (HSV-1 [9]; Ilaprazole 18.0 μM): 6.00E+02 | Titer of HSV-1 Media, 48 h (HSV-1 [9]; Ilaprazole 18.0 μM): 0.00E+00 | Titer of HSV-1 in media + cell lysate, 24 h (HSV-1 [9]; Ilaprazole 18.0 μM): 9.1E+03 | Titer of HSV-1 Media, 24 h (HSV-1 [9]; Ilaprazole 22.5 μM): 1.00E+02 | Titer of HSV-1 Media, 48 h (HSV-1 [9]; Ilaprazole 22.5 μM): 0.00E+00 | Titer of HSV-1 in media + cell lysate, 24 h (HSV-1 [9]; Ilaprazole 22.5 μM): 7E+02 | Inhibition of virus release 4 and 5 days after a single application (HSV-1 [9]; data not shown): Significant inhibition was still observed | EC50 (HSV-1 [9]; read-out: EC50, inhibition of HSV-1 release at 72 h, 72 h after a single application): 0.8 to 1.2 µM | EC50 (HSV-1 [9]; read-out: EC50, inhibition of HSV-1 release, 24 h, range stated jointly for HSV-1 and HSV-2): 3 to 9 µM

Rabeprazole
Tm shift of Tsg101 in the FTS assay on addition of DTT [1]: abolishes the Tm shift | EC50 (μM) Inhibition of HSV-2 Budding at 24 h (HSV-2 [2]; [10]): inactive

Cc1c(OCC(F)(F)F)ccnc1C[S+]([O-])c1nc2ccccc2[nH]1 (stereo not drawn) [Lansoprazole]
EC50 (HSV-2 [2]; [11]): 84 µM
